The values that follow are results of earlier work, collected in patent US4937073A, “Reformed vetiver oil and vetiverol, process for preparing the same, and perfumery composition comprising the same” (Kao Corporation, priority 1988, dated 1990).

The pKa is the negative logarithm of the acid dissociation constant.

Where two headings read alike, the source gives them in different places.

On to `O=C(O)C(O)C(O)C(=O)O` (centres unmarked) [tartaric acid], for which the pKa is given as 2.82. The pKa (listed as Tartaric acid) is 1.04.
